# Laboratory results reported in patent US20250340581A1, “PAEONIFLORIN MONOHYDRATE CRYSTAL FORM A, PREPARATION METHOD THEREFOR, AND USE THEREOF” (SHANGHAI INSTITUTE OF MATERIA MEDICA.CHINESE ACADEMY OF …, priority 2023, published 2025).
# Assays:
# Type in all cases: physicochemical
# [1] = Hygroscopicity test by dynamic moisture sorption (DVS); conditions: for adsorbed moisture: 80% RH, 25° C., DVS
# Experimental: DVS analysis: all dynamic moisture sorption analysis […] of this experiment were determined by DVS advantage model sorption instrument, British SMS company, relative humidity range: 0-95%, temperature: 25° C. Commercially available paeoniflorin (Aladdin Company, batch number K2011169, purity ≥98%) was used as the amorphous powder, and its X-ray powder diffraction comparison diagram with the crystal form A of the present invention is shown in FIG. 6, and the hygroscopicity analysis comparison diagram of paeoniflorin and the crystal form A of the present invention is shown in FIG. 7. […] The hygroscopicity of crystal form B was analyzed using DVS advantage adsorption instrument of SMS company in the UK, the amorphous form adsorbed 11.1% of water at 80% RH, showing hygroscopicity; Paeoniflorin crystal form B of the present invention adsorbed 2.22% of water at 80% RH, but its hygroscopicity was obviously different from that of crystal form A.
# [2] = Thermal stability by TG and DSC
# Experimental: DSC analysis: the method adopts a DSC 8500 model differential scanning calorimeter of PerkinElmer company, US. for detection, the atmosphere is nitrogen, and the heating speed is 10° C./min.
# TG analysis: the method adopts a thermogravimetric analyzer Netzsch TG 209F3 model of German […] company, temperature range: 30-400° C., scan rate: 10° C./min, purge gas: 25 mL/min.
# Solubility in water = experiment: Solubility in water
# Experimental: The crystal form A has good water solubility, the solubility in water is more than 20 mg/mL, and the crystal form A is easy to dissolve.
# [3] = Accelerated stability in a stability box (40° C./75% RH); conditions: 15 days acceleration
adsorbed moisture [1] [%],phase transition and weight loss temperatures [2],solubility (Solubility in water) [mg/mL],adsorbed moisture ([1]; listed as paeoniflorin monohydrate crystal form A) [%],"hygroscopicity (qualitative) ([1]; no wet agglomeration, powder has good fluidity)",SMILES,physical stability (conversion to amorphous or other forms) [3]
2.22,–,–,–,–,CC12CC3(O)OC(O1)C1(COC(=O)c4ccccc4)C3CC21OC1OC(CO)C(O)C(O)C1O (stereo not shown) [Paeoniflorin crystal form B],–
11.1,–,–,–,–,"CC12CC3(O)OC(O1)C1(COC(=O)c4ccccc4)C3CC21OC1OC(CO)C(O)C(O)C1O (stereo not shown) [amorphous form, reference compound]",–
–,above 100 °C,> 20,0.3,small hygroscopicity,CC12CC3(O)OC(O1)C1(COC(=O)c4ccccc4)C3CC21OC1OC(CO)C(O)C(O)C1O (stereo not shown) [crystal form A],did not convert to amorphous or other forms
